Data as given in patent publication US7655683B2, “Imidazolopyrazole derivatives useful as selective androgen receptor modulators” (Janssen Pharmaceutica NV, priority 2006, dated 2010).
Where two headings read alike, the source gives them in different places.

Legend:
[1] = system: ventral prostate and levator ani of immature castrated male Sprague Dawley rats; test: Ventral Prostate and Levator ani Weight in vivo Assay (agonist activity); parameters: key to % Prostate Stimulation / % levator ani Stimulation: level 1 agonist active if it produced greater than or equal to 30% stimulation of levator ani or ventral prostate at 30 mg/kg; level 2 agonist active if it produced greater than or equal to 5% but less than 30% stimulation of levator ani or ventral prostate at 30 mg/kg; listed herein as “inactive” as they did not meet the specified criteria defined above; details: once daily for five days, oral, vehicle = 0%, testosterone propionate = 100%, criteria at 30 mg/kg; for change in vivo at 30 mg/kg: Rattus norvegicus, 120 h
Method: Immature (approximately 50 g) castrated male Sprague Dawley rats (Charles River) were treated once daily for five days with test compound ([…], in 30% cyclodextrin or 0.5% methylcellulose vehicle), or with testosterone propionate (administered subcutaneously by injection at the nape of the neck at 5 mg/kg, in a volume of 0.1 mL in sesame oil), or with vehicle (1 mL of 30% cyclodextrin or 0.5% methylcellulose, given orally). On the sixth day, the rats were euthanized by asphyxiation in carbon dioxide. Ventral prostates and levator ani. muscle were removed and their wet weights determined.
Test compound activity was determined as the percent stimulation of tissue weight, with the vehicle-treated control group set to zero percent and the testosterone alone-treated control group set to 100%.

[2] = system: ventral prostate and seminal vesicle of immature castrated male Sprague Dawley rats; test: Ventral Prostate and Seminal Vesicle Weight in vivo Assay (antagonist activity, with testosterone propionate); parameters: key to Inhibition of prostate (non-weight prostate weight, mg) / Inhibition of seminal vesicle (non-weight seminal vesicle weight, mg): level 1 agonist active if it produced greater than or equal to 30% stimulation of levator ani or ventral prostate at 30 mg/kg; level 2 agonist active if it produced greater than or equal to 5% but less than 30% stimulation of levator ani or ventral prostate at 30 mg/kg; listed herein as “inactive” as they did not meet the specified criteria defined above; details: test compound oral plus testosterone propionate 2 mg/kg s.c., five days, criteria at 30 mg/kg; for inhibition in vivo at 30 mg/kg: Rattus norvegicus, 120 h
Method: Immature (approximately 50 g) castrated male Sprague Dawley rats (Charles River) were treated once daily for five days with test compound ([…], in 30% cyclodextrin or 0.5% methylcellulose vehicle) and with testosterone propionate (given subcutaneously by injection at the nape of the neck at 2 mg/kg, in a volume of 0.1 mL in sesame oil). On the sixth day, the rats were euthanized by asphyxiation in carbon dioxide. Ventral prosatates and seminal vesicles were removed and their wet weights determined. Test compound activity was determined as the percent inhibition of testosterone-enhanced tissue weights, with a vehicle-treated control group set to zero percent and a testosterone alone-treated control group set to 100%.

[3] = levator ani wet weight, read-out: % levator ani Stimulation
[4] = ventral prostate wet weight, read-out: % Prostate Stimulation
[5] = seminal vesicle wet weight, read-out: Inhibition of seminal vesicle (non-weight seminal vesicle weight, mg)
[6] = ventral prostate wet weight, read-out: Inhibition of prostate (non-weight prostate weight, mg)
[7] = levator ani wet weight, 30 mg/kg
[8] = ventral prostate wet weight, 30 mg/kg

Row | SMILES | change in vivo at 30 mg/kg [1, 3] | change in vivo at 30 mg/kg [1, 4] | inhibition in vivo at 30 mg/kg [2, 5] | inhibition in vivo at 30 mg/kg [2, 6] | Inhibition of prostate (non-weight prostate weight, mg) ([2]; ventral prostate wet weight) | % levator ani Stimulation ([1]; levator ani wet weight) | % Prostate Stimulation ([1]; ventral prostate wet weight) | % levator ani Stimulation [1, 7] | % Prostate Stimulation [1, 8] | Inhibition of seminal vesicle (non-weight seminal vesicle weight, mg) ([2]; seminal vesicle wet weight)
1 | CCc1c(/N=C2\N=C(N)N3N=C(C(F)(F)F)CC23C)ccc(C#N)c1C(F)(F)F (centres unmarked) [Compound 9, 4-(6-Amino-3a-methyl-2-trifluoromethyl-3,3a-dihydro-imidazo[1,5-b]pyrazol-4-ylideneamino)-3-ethyl-2-trifluoromethyl-benzonitrile] | 5 to 30% | 5 to 30% | ≥ 30% | 5 to 30% | – | – | – | – | – | –
2 | CCOC(=O)C1=NN2C(N)=N/C(=N\c3ccc(C#N)c(C(F)(F)F)c3)C2(C)C1 (centres unmarked) [Compound 7, 6-Amino-4-(4-cyano-3-trifluoromethyl-phenylimino)-3a-methyl-3a,4-dihydro-3H-imidazo[1,5-b]pyrazole-2-carboxylic acid ethyl ester] | 5 to 30% | 5 to 30% | 5 to 30% | – | inactive | – | – | – | – | –
3 | CCC12CC(C(F)(F)F)=NN1C(N)=N/C2=N\c1ccc(C#N)c(C(F)(F)F)c1 (centres unmarked) [Compound 8, 4-(6-Amino-3a-ethyl-2-trifluoromethyl-3,3a-dihydro-imidazo[1,5-b]pyrazol-4-ylideneamino)-2-trifluoromethyl-benzonitrile] | 5 to 30% | 5 to 30% | 5 to 30% | – | inactive | – | – | – | – | –
4 | CC12CC(C(F)(F)F)=NN1C(N)=N/C2=N\c1ccc(Cl)c(Cl)c1 (centres unmarked) [Compound 4, 4-(3,4-Dichloro-phenylimino)-3a-methyl-2-trifluoromethyl-3a,4-dihydro-3H-imidazo[1,5-b]pyrazol-6-ylamine] | – | – | 5 to 30% | 5 to 30% | – | inactive | inactive | – | – | –
5 | C[C@@]12CC(C(F)(F)F)=NN1C(N)=NC2=Nc1ccc(C#N)c(C(F)(F)F)c1.O [Compound 18, 4-(6-Amino-3aS-methyl-2-trifluoromethyl-3,3a-dihydro-imidazo[1,5-b]pyrazol-4-ylideneamino)-2-trifluoromethyl-benzonitrile-Hydrates] | – | – | – | – | inactive | – | – | level 2 (level 2 agonist active if it produced greater than or equal to 5% but less than 30% stimulation of levator ani or ventral prostate at 30 mg/kg) | inactive | inactive
6 | CC12CC(C(F)(F)F)=NN1C(N)=N/C2=N\c1ccc(Br)c(C(F)(F)F)c1 (centres unmarked) [Compound 10, 4-(4-Bromo-3-trifluoromethyl-phenylimino)-3a-methyl-2-trifluoromethyl-3a,4-dihydro-3H-imidazo[1,5-b]pyrazol-6-ylamine] | – | – | 5 to 30% | 5 to 30% | – | inactive | inactive | – | – | –
7 | C[C@@]12CC(C(F)(F)F)=NN1C(N)=NC2=Nc1ccc(C#N)c(C(F)(F)F)c1.O [Compound 19, 4-(6-Amino-3aS-methyl-2-trifluoromethyl-3,3a-dihydro-imidazo[1,5-b]pyrazol-4-ylideneamino)-2-trifluoromethyl-benzonitrile-Hydrates] | – | – | – | – | level 1 (level 1 antagonist active if it produced greater than or equal to 30% inhibition of ventral prostate or seminal vesicle at 30 mg/kg) | – | – | level 1 (level 1 agonist active if it produced greater than or equal to 30% stimulation of levator ani or ventral prostate at 30 mg/kg) | level 1 (level 1 agonist active if it produced greater than or equal to 30% stimulation of levator ani or ventral prostate at 30 mg/kg) | level 1 (level 1 antagonist active if it produced greater than or equal to 30% inhibition of ventral prostate or seminal vesicle at 30 mg/kg)
8 | CC12CC(C(F)(F)F)=NN1C(N)=N/C2=N\c1ccc([N+](=O)[O-])c(C(F)(F)F)c1 (centres unmarked) [Compound 5, 3a-Methyl-4-(4-nitro-3-trifluoromethyl-phenylimino)-2-trifluoromethyl-3a,4-dihydro-3H-imidazo[1,5-b]pyrazol-6-ylamine] | – | – | ≥ 30% | – | inactive | inactive | inactive | – | – | –
9 | C[C@@]12CC(C(F)(F)F)=NN1C(N)=NC2=Nc1ccc(C#N)c(C(F)(F)F)c1.O [Compound 21, 4-(6-Amino-3aS-methyl-2-trifluoromethyl-3,3a-dihydro-imidazo[1,5-b]pyrazol-4-ylideneamino)-2-trifluoromethyl-benzonitrile-Hydrates] | – | – | – | – | level 1 (level 1 antagonist active if it produced greater than or equal to 30% inhibition of ventral prostate or seminal vesicle at 30 mg/kg) | – | – | level 1 (level 1 agonist active if it produced greater than or equal to 30% stimulation of levator ani or ventral prostate at 30 mg/kg) | level 1 (level 1 agonist active if it produced greater than or equal to 30% stimulation of levator ani or ventral prostate at 30 mg/kg) | level 1 (level 1 antagonist active if it produced greater than or equal to 30% inhibition of ventral prostate or seminal vesicle at 30 mg/kg)
10 | C[C@]12CC(C(F)(F)F)=NN1C(N)=NC2=Nc1ccc(C#N)c(C(F)(F)F)c1.O [Compound 20, 4-(6-Amino-3aR-methyl-2-trifluoromethyl-3,3a-dihydro-imidazo[1,5-b]pyrazol-4-ylideneamino)-2-trifluoromethyl-benzonitrile-Hydrates] | – | – | – | – | level 2 (level 2 antagonist active if it produced greater than or equal to 5% but less than 30% inhibition of ventral prostate or seminal vesicle at 30 mg/kg) | – | – | level 2 (level 2 agonist active if it produced greater than or equal to 5% but less than 30% stimulation of levator ani or ventral prostate at 30 mg/kg) | level 2 (level 2 agonist active if it produced greater than or equal to 5% but less than 30% stimulation of levator ani or ventral prostate at 30 mg/kg) | level 1 (level 1 antagonist active if it produced greater than or equal to 30% inhibition of ventral prostate or seminal vesicle at 30 mg/kg)
11 | CC12CC(C(F)(F)F)=NN1C(=N)O/C2=N\c1ccc(C#N)c(C(F)(F)F)c1 (centres unmarked) [Compound 15, 4-(6-Imino-3a-methyl-2-trifluoromethyl-3,3a-dihydro-pyrazolo[1,5-c]oxazol-4-ylideneamino)-2-trifluoromethyl-benzonitrile] | ≥ 30% | 5 to 30% | 5 to 30% | 5 to 30% | – | – | – | – | – | –
12 | CC12CC(c3c(F)c(F)c(F)c(F)c3F)=NN1C(N)=N/C2=N\c1ccc(C#N)c(C(F)(F)F)c1 (centres unmarked) [Compound 11, 4-(6-Amino-3a-methyl-2-pentafluorophenyl-3,3a-dihydro-imidazo[1,5-b]pyrazol-4-ylideneamino)-2-trifluoromethyl-benzonitrile] | 5 to 30% | 5 to 30% | – | – | – | – | – | – | – | –
13 | C[C@]12CC(C(F)(F)F)=NN1C(NC(=O)Nc1ccc(I)cc1)=N/C2=N\c1ccc(C#N)c(C(F)(F)F)c1 [Compound 14, 1-[4-(4-Cyano-3-trifluoromethyl-phenylimino)-3aR-methyl-2-trifluoromethyl-3a,4-dihydro-3H-imidazo[1,5-b]pyrazol-6-yl]-3-(4-iodo-phenyl)-urea] | ≥ 30% | 5 to 30% | – | 5 to 30% | – | – | – | – | – | inactive
